From US4115385A, “Antibacterial 3-(5-tetrazolyl) penam compounds” (Pfizer Inc., priority 1977, dated 1978)
Converted amounts (≈) assume the structure as drawn.

system: Streptococcus pyogenes; experiment: In vitro minimum inhibitory concentration (MIC) vs. Strep. pyogenes; type: cell-based; conditions: Examples
Description: The antibacterial penam compounds of the instant invention show activity against a wide variety of gram-positive and gram-negative bacteria. […] The broth is inoculated with the bacterial culture, and with the test antibiotic, and then it is incubated overnight. On the next day, the test is read visually. The minimum inhibitory concentration (MIC) is the lowest concentration of antibiotic which prevents turbidity, i.e., which prevents growth of the microorganism. In vitro activities of several of the penam compounds of the invention are presented later in this specification.
In Table II, the minimum inhibitory concentrations (MIC's) of compounds of formula I, wherein R^2 is hydrogen, against a strain of Streptococcus pyogenes, are reported; and in Table III, minimum inhibitory concentrations of compounds of formula I, wherein R^2 is hydrogen, against a strain of Staphylococcus aureus, are presented. Because of the tautomeric nature of such tetrazole derivatives, referred to hereinbefore,each of the preparations tested also contains some of the corresponding compound of formula II, wherein R^3 is hydrogen.

Compound | MIC against Strep. pyogenes
6-(2-Phenylacetamido)-2,2-dimethyl-3-(1-pivaloyloxymethyl]-tetrazol-5-yl)penam and 6-(2-Phenylacetamido)-2,2-dimethyl-3-(2-[pivaloyloxylmethyl]tetrazol-5-yl)penam | 0.2 µg/mL

same assay, conditions: Streptococcus pyogenes, read-out: MIC vs. Strep. pyogenes

Compound | MIC
CC1(C)S[C@@H]2[C@H](NC(=O)[C@H](NC(=O)CCNC(=O)Nc3ccccc3)c3ccccc3)C(=O)N2[C@H]1c1nnn[nH]1 | < 0.1 µg/mL
CC1(C)S[C@@H]2[C@H](NC(=O)C(N)c3cc(O)ccc3Br)C(=O)N2[C@H]1c1nnn[nH]1 (mixture of isomers) | < 0.1 µg/mL
CC1(C)S[C@@H]2[C@H](NC(=O)C(N)c3cccnc3)C(=O)N2[C@H]1c1nnn[nH]1 (mixture of isomers) [DL-2-amino-2-(3-pyridyl)acetyl] | < 0.1 µg/mL
CC1(C)S[C@@H]2[C@H](NC(=O)C(N)c3ccc(S(N)(=O)=O)cc3)C(=O)N2[C@H]1c1nnn[nH]1 (mixture of isomers) [DL-2-amino-2-(p-sulfamoylphenyl)acetyl] | < 0.1 µg/mL
CC1(C)S[C@@H]2[C@H](NC(=O)Cc3ccccc3CN=[N+]=[N-])C(=O)N2[C@H]1c1nnn[nH]1 [2-(2-azidomethylphenyl)acetyl, 6-(2-[2-Azidomethylphenyl]acetamido)-2,2-dimethyl-3-(5-tetrazolyl)penam] | ≤ 0.1 µg/mL
CC1(C)S[C@@H]2[C@H](NC(=O)C(NC(=O)CBr)c3ccccc3)C(=O)N2[C@H]1c1nn[nH]n1 (stereo partly drawn) [2-(2-bromoacetamido)-2-phenylacetyl, 6-(2-[2-bromoacetamido]-2-phenylacetamido)-2,2-dimethyl-3-(5-tetrazolyl)penam] | < 0.1 µg/mL
CC1(C)S[C@@H]2[C@H](NC(=O)CNC(=N)c3cccs3)C(=O)N2[C@H]1c1nnn[nH]1 [2-(2-thiophenecarboxamidino)acetyl] | < 0.1 µg/mL

same assay, conditions: Streptococcus pyogenes; Table II; two-fold serial dilution, Brain-Heart Infusion broth, overnight; read-out: MIC vs. Strep. pyogenes

Compound | MIC
CC1(C)S[C@@H]2[C@H](NC(=O)[C@H](NC(=O)CNC(=O)NC(=N)c3ccccc3)c3ccccc3)C(=O)N2[C@H]1c1nnn[nH]1 | 0.78 µg/mL (≈ 1.35 µM)
COc1ccc(C(=N)NC(=O)NCC(=O)N[C@@H](C(=O)N[C@@H]2C(=O)N3[C@@H]2SC(C)(C)[C@@H]3c2nnn[nH]2)c2ccccc2)cc1 | 1.56 µg/mL (≈ 2.57 µM)
CC1(C)S[C@@H]2[C@H](NC(=O)[C@H](NC(=O)NC(=O)c3ccncc3)c3ccccc3)C(=O)N2[C@H]1c1nn[nH]n1 | 0.2 µg/mL (≈ 0.383 µM)
CC1(C)S[C@@H]2[C@H](NC(=O)C(Cc3ccccc3)NC(=N)c3ccncc3)C(=O)N2[C@H]1c1nnn[nH]1 (stereo partly drawn) | 0.2 µg/mL (≈ 0.407 µM)
CC1(C)S[C@@H]2[C@H](NC(=O)[C@H](NC(=O)CNC(=N)Cc3ccc(Cl)cc3)c3ccccc3)C(=O)N2[C@H]1c1nnn[nH]1 | 0.2 µg/mL (≈ 0.344 µM)
CC1(C)S[C@@H]2[C@H](NC(=O)[C@H](NC(=O)CNC(=N)c3nc4ccccc4o3)c3ccccc3)C(=O)N2[C@H]1c1nnn[nH]1 | 0.39 µg/mL (≈ 0.679 µM)
CC1(C)S[C@@H]2[C@H](NC(=O)[C@H](NC(=O)CSc3ncc[nH]3)c3ccccc3)C(=O)N2[C@H]1c1nn[nH]n1 | 0.2 µg/mL (≈ 0.389 µM)
CC1(C)S[C@@H]2[C@H](NC(=O)[C@H](NC(=O)CNC(=N)c3ncccn3)c3ccccc3)C(=O)N2[C@H]1c1nnn[nH]1 | 0.78 µg/mL (≈ 1.46 µM)
CC1(C)S[C@@H]2[C@H](NC(=O)[C@H](NC(=O)CNC(=O)NC(=N)NCc3ccncc3)c3ccccc3)C(=O)N2[C@H]1c1nn[nH]n1 | 0.004 µg/mL (≈ 0.00659 µM)
CC1(C)S[C@@H]2[C@H](NC(=O)[C@H](NC(=O)CNC(=O)NC(=N)NCC3CCCCC3)c3ccccc3)C(=O)N2[C@H]1c1nn[nH]n1 | 0.2 µg/mL (≈ 0.327 µM)
CC1(C)S[C@@H]2[C@H](NC(=O)[C@H](NC(=O)CNC(=O)NC(=N)NCc3ccc(Cl)cc3)c3ccccc3)C(=O)N2[C@H]1c1nn[nH]n1 | 0.39 µg/mL (≈ 0.609 µM)
CC1(C)S[C@@H]2[C@H](NC(=O)[C@H](NC(=O)CNC(=O)NC(=N)N)c3ccccc3)C(=O)N2[C@H]1c1nn[nH]n1 | 3.12 µg/mL (≈ 6.05 µM)
CC1(C)S[C@@H]2[C@H](NC(=O)[C@H](NC(=O)CNC(=N)c3cc(Cl)cc(C#N)c3)c3ccccc3)C(=O)N2[C@H]1c1nnn[nH]1 | 0.004 µg/mL (≈ 0.00674 µM)
CC1(C)S[C@@H]2[C@H](NC(=O)[C@H](NC(=O)CNC(=O)NS(C)(=O)=O)c3ccccc3)C(=O)N2[C@H]1c1nnn[nH]1 | 0.2 µg/mL (≈ 0.363 µM)
CC1(C)S[C@@H]2[C@H](NC(=O)[C@H](NC(=O)CNC(=N)c3cc(Br)cc(S(N)(=O)=O)c3)c3ccccc3)C(=O)N2[C@H]1c1nnn[nH]1 | 0.004 µg/mL (≈ 0.00578 µM)
CC1(C)S[C@@H]2[C@H](NC(=O)[C@H](NC(=O)CNC(=N)c3cc(Cl)cc(S(N)(=O)=O)c3)c3ccccc3)C(=O)N2[C@H]1c1nnn[nH]1 | 0.004 µg/mL (≈ 0.00618 µM)
CC1(C)S[C@@H]2[C@H](NC(=O)[C@H](NC(=O)CNC(=N)c3cc(S(N)(=O)=O)cc(S(N)(=O)=O)c3)c3ccccc3)C(=O)N2[C@H]1c1nnn[nH]1 | 0.004 µg/mL (≈ 0.00578 µM)
CC1(C)S[C@@H]2[C@H](NC(=O)[C@H](NC(=O)Cc3ccc(Br)cc3)c3ccccc3)C(=O)N2[C@H]1c1nnn[nH]1 | 0.2 µg/mL (≈ 0.351 µM)
CCCCN=C(NCCCC)SCC(=O)N[C@@H](C(=O)N[C@@H]1C(=O)N2[C@@H]1SC(C)(C)[C@@H]2c1nn[nH]n1)c1ccccc1 | 0.004 µg/mL (≈ 0.00665 µM)
CCN=C(NCC)SCC(=O)N[C@@H](C(=O)N[C@@H]1C(=O)N2[C@@H]1SC(C)(C)[C@@H]2c1nn[nH]n1)c1ccccc1 | 0.004 µg/mL (≈ 0.00733 µM)
CC1(C)S[C@@H]2[C@H](NC(=O)[C@H](NC(=O)CSC(=N)N)c3ccccc3)C(=O)N2[C@H]1c1nn[nH]n1 | 0.004 µg/mL (≈ 0.00817 µM)
CC1(C)S[C@@H]2[C@H](NC(=O)[C@H](NC(=O)CNC(=O)OCc3ccccc3)c3ccccc3)C(=O)N2[C@H]1c1nnn[nH]1 | 0.39 µg/mL (≈ 0.691 µM)

Compound | MIC
CC1(C)S[C@@H]2[C@H](NC(=O)[C@H](NC(=O)CSCc3ccccc3)c3ccccc3)C(=O)N2[C@H]1c1nnn[nH]1 | 0.78 µg/mL (≈ 1.45 µM)
CC1(C)S[C@@H]2[C@H](NC(=O)[C@H](NC(=O)CNC(=N)c3cccc(C#N)c3)c3ccccc3)C(=O)N2[C@H]1c1nnn[nH]1 | 6.25 µg/mL (≈ 11.2 µM)
CC1(C)S[C@@H]2[C@H](NC(=O)[C@H](NC(=O)Cc3ccc(NC(=N)N)cc3)c3ccccc3)C(=O)N2[C@H]1c1nn[nH]n1 | 1.56 µg/mL (≈ 2.84 µM)
CC1(C)S[C@@H]2[C@H](NC(=O)[C@H](NS(=O)(=O)c3cccs3)c3ccccc3)C(=O)N2[C@H]1c1nn[nH]n1 | 0.39 µg/mL (≈ 0.751 µM)
CCNC(=S)NCCC(=O)N[C@@H](C(=O)N[C@@H]1C(=O)N2[C@@H]1SC(C)(C)[C@@H]2c1nnn[nH]1)c1ccccc1 | 0.39 µg/mL (≈ 0.734 µM)
CC1(C)S[C@@H]2[C@H](NC(=O)[C@H](NC(=O)CCNC(=S)Nc3ccccc3)c3ccccc3)C(=O)N2[C@H]1c1nnn[nH]1 | 1.56 µg/mL (≈ 2.69 µM)
CC1(C)S[C@@H]2[C@H](NC(=O)[C@H](NC(=O)CCNC(=N)c3ccc(Cl)c(Cl)c3)c3ccccc3)C(=O)N2[C@H]1c1nnn[nH]1 | 0.78 µg/mL (≈ 1.27 µM)
CC1(C)S[C@@H]2[C@H](NC(=O)[C@H](NC(=O)CCNC(=N)Cc3ccc(Cl)cc3)c3ccccc3)C(=O)N2[C@H]1c1nnn[nH]1 | 1.56 µg/mL (≈ 2.62 µM)
CC(=O)NC(=S)N[C@@H](C(=O)N[C@@H]1C(=O)N2[C@@H]1SC(C)(C)[C@@H]2c1nn[nH]n1)c1ccccc1 | 3.2 µg/mL (≈ 6.74 µM)
CC1(C)S[C@@H]2[C@H](NC(=O)[C@H](NC(=O)NC(=O)OCc3ccccc3)c3ccccc3)C(=O)N2[C@H]1c1nn[nH]n1 | 0.004 µg/mL (≈ 0.00726 µM)
CC1(C)S[C@@H]2[C@H](NC(=O)[C@H](NC(=O)CCNC(=N)c3ccccc3)c3ccccc3)C(=O)N2[C@H]1c1nnn[nH]1 | 3.12 µg/mL (≈ 5.7 µM)
CC1(C)S[C@@H]2[C@H](NC(=O)[C@H](NC(=O)CCNC(=N)c3cc[n+]([O-])cc3)c3ccccc3)C(=O)N2[C@H]1c1nnn[nH]1 | 3.12 µg/mL (≈ 5.53 µM)
CC1(C)S[C@@H]2[C@H](NC(=O)[C@H](NC(=O)c3ccncc3)c3ccccc3)C(=O)N2[C@H]1c1nnn[nH]1 | 3.12 µg/mL (≈ 6.52 µM)
CC1(C)S[C@@H]2[C@H](NC(=O)[C@H](NS(=O)(=O)c3ccc4ccccc4c3)c3ccccc3)C(=O)N2[C@H]1c1nn[nH]n1 | 0.2 µg/mL (≈ 0.355 µM)
COc1ccc(S(=O)(=O)N[C@@H](C(=O)N[C@@H]2C(=O)N3[C@@H]2SC(C)(C)[C@@H]3c2nn[nH]n2)c2ccccc2)cc1 | 0.2 µg/mL (≈ 0.368 µM)
CC1(C)S[C@@H]2[C@H](NC(=O)[C@H](NC(=O)C(=O)Oc3ccccc3)c3ccccc3)C(=O)N2[C@H]1c1nnn[nH]1 | 25 µg/mL (≈ 47.9 µM)
CC1(C)S[C@@H]2[C@H](NC(=O)C(N)c3cccc([N+](=O)[O-])c3)C(=O)N2[C@H]1c1nnn[nH]1 (mixture of isomers) [DL-2-amino-2-(m-nitrophenyl)acetyl] | 0.004 µg/mL
CC1(C)S[C@@H]2[C@H](NC(=O)C(CN)c3ccccc3)C(=O)N2[C@H]1c1nnn[nH]1 (mixture of isomers) [DL-3-amino-2-phenylpropionyl, 6-(DL-3-amino-2-phenylpropionamido)-2,2-dimethyl-3-(5-tetrazolyl)penam] | 12.5 µg/mL
COc1cccc(OC)c1C(=O)N[C@@H]1C(=O)N2[C@@H]1SC(C)(C)[C@@H]2c1nnn[nH]1 [2,6-dimethoxybenzoyl, 6-(2,6-dimethoxybenzamido)-2,2-dimethyl-3-(5-tetrazolyl)penam] | 0.2 µg/mL (≈ 0.494 µM)
CC1(C)S[C@@H]2[C@H](NC(=O)CSc3ccccc3CN)C(=O)N2[C@H]1c1nnn[nH]1 [2-(2-[aminomethyl]phenylthio)acetyl] | 1.56 µg/mL (≈ 3.72 µM)
CC1(C)S[C@@H]2[C@H](NC(=O)Cc3ccccc3CC(=O)O)C(=O)N2[C@H]1c1nnn[nH]1 [2-(2-[carboxymethyl]phenyl)acetyl, 6-(2-[2-(Carboxymethyl)phenyl]acetamido)-2,2-dimethyl-3-(5-tetrazolyl)penam] | 0.2 µg/mL (≈ 0.48 µM)
Cc1cc(C)cc(C(=N)NCC(=O)N[C@@H]2C(=O)N3[C@@H]2SC(C)(C)[C@@H]3c2nnn[nH]2)c1 [2-(3,5-dimethylbenzamidino)acetyl] | 0.39 µg/mL (≈ 0.91 µM)

same assay, conditions: Table IV

Compound | MIC vs. Strep. pyogenes
6-(2-Phenylacetamido)-2,2-dimethyl-3-(1-pivaloyloxymethyl]-tetrazol-5-yl)penam and 6-(2-Phenylacetamido)-2,2-dimethyl-3-(2-[pivaloyloxylmethyl]tetrazol-5-yl)penam | 0.2 µg/mL
6-(2-[2-Aminomethylphenyl]acetamido)-2,2-dimethyl-3-(1-[2]-pivaloyloxymethyltetrazol-5-yl)penam | < 0.1 µg/mL
